Test systems include Candida albicans CAN105; Enterococcus faecalis; Escherichia coli UB1005; Candida albicans; Pseudomonas aeruginosa; Staphylococcus aureus; Staphylococcus hominis.
Experiment in all cases: ≥ marks a high value that may be exact or a test limit, other limits are often not marked, values filed in µg/mL are converted to µM
In test [1] the test system is Pseudomonas aeruginosa H187.
In test [2] the test system is Staphylococcus aureus K147.
In test [3] the test system is Staphylococcus aureus SAP 0017.
Test [4] deals with Staphylococcus epidermidis.
Test [5] concerns Acinetobacter baumannii ATCC 19606.
The subject of test [6] is Corynebacterium jeikeium ATCC BAA-949.
For test [7], the system named is Escherichia coli ATCC 25922.
In test [8] the test system is Pseudomonas aeruginosa AA43.
For test [9], the system named is Pseudomonas aeruginosa ATCC 19660.
In test [10] the test system is Pseudomonas aeruginosa ATCC 27853.
Test [11] concerns Pseudomonas aeruginosa ME.
Test [12] relates to Pseudomonas aeruginosa PAO1.
Test [13] has as its system Pseudomonas aeruginosa R1.
Test [14] has as its system Staphylococcus aureus ATCC 25923.
The subject of test [15] is Staphylococcus epidermidis ATCC 12228.
For test [16], the system named is Bacillus subtilis ATCC 6633.
Test [17] concerns Salmonella enterica subsp. enterica serovar Enteritidis BNCC 103134.
Test [18] relates to Bacillus subtilis KCTC 3068.
The test system of test [19] is Escherichia coli DSM 1103.
Test [20] concerns Escherichia coli KCTC 1682.
Test [21] concerns Pseudomonas aeruginosa CCARM 2092.
Test [22] has as its system Pseudomonas aeruginosa CCARM 2095.
The subject of test [23] is Pseudomonas aeruginosa CCARM 2109.
Test [24] relates to Pseudomonas aeruginosa DSM 1117.
Test [25] concerns Pseudomonas aeruginosa KCTC 1637.
For test [26], the system named is Salmonella typhimurium KCTC 1926.
In test [27] the test system is Staphylococcus aureus CCARM 3001.
Test [28] concerns Staphylococcus aureus CCARM 3089.
Test [29] concerns Staphylococcus aureus CCARM 3543.
Test [30] relates to Staphylococcus aureus DSM 1104.
Test [31] has as its system Staphylococcus aureus KCTC 1621.
In test [32] the test system is Staphylococcus epidermidis DSM 1798.
Test [33] relates to Staphylococcus epidermidis KCTC 1917.
For test [34], the system named is Acinetobacter baumannii 4-MRGN.

In brackets after ≈: the same amount, converted by molar mass. Several values for one entry are separate records, joined by “and”; a condition that tells them apart may be missing. Equal values may be shown once. A value given as a limit tells only on which side of the number the result lay.

Consider `CC[C@H](C)[C@H](NC(=O)CNC(=O)[C@@H](NC(=O)[C@H](CCCCN)NC(=O)[C@H](CCCCN)NC(=O)[C@H](Cc1ccccc1)NC(=O)[C@H](CC(C)C)NC(=O)[C@H](CCCCN)NC(=O)[C@H](Cc1c[nH]c2ccccc12)NC(=O)[C@@H](N)CCCCN)[C@@H](C)CC)C(=O)NCC(=O)N[C@@H](C)C(=O)N[C@H](C(=O)N[C@@H](CC(C)C)C(=O)N[C@H](C(=O)N[C@H](C(=O)NCC(=O)N[C@@H](CC(C)C)C(=O)N1CCC[C@H]1C(=O)N[C@@H](C)C(=O)N[C@@H](CC(C)C)C(=O)N[C@H](C(=O)N[C@@H](CO)C(=O)O)[C@@H](C)CC)[C@@H](C)O)[C@@H](C)O)C(C)C` [KWKLFKKIGIGAVLTTGLPALIS], for which the MIC (usually the lowest concentration found to suppress growth) was 26.1 µM (≈ 64 µg/mL) against Candida albicans CAN105; 26.1 µM (≈ 64 µg/mL) in the test with Enterococcus faecalis; 5.3 µM (≈ 13 µg/mL) against Escherichia coli UB1005; 13 µM (≈ 32 µg/mL) in test [1]; 26.1 µM (≈ 64 µg/mL) in [2]; 26.1 µM (≈ 64 µg/mL) in [3]. For the same molecule, the MIC in test [4] came to 17.5 µM (≈ 43 µg/mL).
For `CC[C@H](C)[C@H](NC(=O)CN)C(=O)N[C@@H](Cc1ccccc1)C(=O)N[C@@H](CO)C(=O)N[C@@H](CCCCN)C(=O)N[C@@H](CC(C)C)C(=O)N[C@@H](C)C(=O)NCC(=O)N[C@@H](CCCCN)C(=O)N[C@@H](CCCCN)C(=O)N[C@H](C(=O)N[C@@H](CCCCN)C(=O)N[C@@H](CC(N)=O)C(=O)N[C@@H](CC(C)C)C(=O)N[C@@H](CC(C)C)C(=O)N[C@H](C(=O)N[C@@H](CO)C(=O)NCC(=O)N[C@@H](CC(C)C)C(=O)N[C@@H](CCCCN)C(=O)NCC(N)=O)[C@@H](C)CC)[C@@H](C)CC` [GIFSKLAGKKIKNLLISGLKG], the MIC turned out to be 1.56 µM (≈ 3.41 µg/mL) in test [5]; 2.83 µM (≈ 6.18 µg/mL) in the test with Candida albicans; 0.125 µM (≈ 0.273 µg/mL) in test [6]; 1.56 µM (≈ 3.41 µg/mL) in [7]; 4.03 µM (≈ 8.8 µg/mL) in test [8]; 16 µM (≈ 35 µg/mL) in test [9]. Also, the MIC was 4 µM and 3.12 µM in [10]; 8 µM (≈ 17.5 µg/mL) in test [11]; 4 µM and > 2.01 µM in [12]; 2 µM (≈ 4.37 µg/mL) in test [13]; 4 µM (≈ 8.74 µg/mL) in the test with Pseudomonas aeruginosa; > 100 µM in test [14]. Also, the MIC is 64 µM and 100 µM against Staphylococcus aureus; 3.12 µM (≈ 6.82 µg/mL) in test [15]; 8 µM (≈ 17.5 µg/mL) in test [4]; 1 µM (≈ 2.18 µg/mL) in the test with Staphylococcus hominis.
As for `NC(=O)C[C@H](NC(=O)[C@H](Cc1cnc[nH]1)NC(=O)[C@H](CC(N)=O)NC(=O)[C@@H](N)Cc1ccc(O)cc1)C(=O)N[C@@H](Cc1ccccc1)C(=O)O` [YNHNF], the MIC is ≥ 300 µM in test [16], 150 µM (≈ 104 µg/mL) in test [7], ≥ 300 µM in test [17] and 300 µM (≈ 208 µg/mL) in test [14].
On to `CC(C)[C@H](NC(=O)[C@H](CCCCN)NC(=O)[C@H](CCCN=C(N)N)NC(=O)[C@H](CCCCN)NC(=O)[C@H](CCCCN)NC(=O)[C@H](CCCCN)NC(=O)[C@@H]1CCCN1C(=O)[C@H](CCC(N)=O)NC(=O)[C@H](CO)NC(=O)[C@H](Cc1c[nH]c2ccccc12)NC(=O)[C@H](CCC(=O)O)NC(=O)[C@@H](NC(=O)[C@H](Cc1c[nH]c2ccccc12)NC(=O)[C@H](Cc1c[nH]c2ccccc12)NC(=O)[C@@H](NC(=O)[C@H](CCC(=O)O)NC(=O)[C@H](Cc1c[nH]c2ccccc12)NC(=O)[C@H](Cc1c[nH]c2ccccc12)NC(=O)[C@@H](NC(=O)[C@H](CCC(=O)O)NC(=O)[C@@H](N)CCCCN)[C@@H](C)O)[C@@H](C)O)[C@@H](C)O)C(=O)O` [KETWWETWWTEWSQPKKKRKV], for which the MIC in test [18] was 8 µM (≈ 22.8 µg/mL); in test [19], ≥ 87 µM; in [20] it was ≥ 32 µM; in test [21], ≥ 32 µM; in test [22] it was ≥ 64 µM; in test [23] it was ≥ 32 µM. Moreover, the minimal inhibitory concentration (MIC) in [24] was ≥ 87 µM; in test [25], ≥ 64 µM; in test [26], ≥ 64 µM; in [27] it was ≥ 64 µM; in test [28] it was ≥ 64 µM; in test [29], ≥ 64 µM. Moreover, the MIC in test [30] is ≥ 87 µM; in test [31], ≥ 64 µM; in test [32], ≥ 87 µM; in [33], ≥ 64 µM.
Take `C[C@H](N)C(=O)N[C@H](C(=O)N[C@@H](CS)C(=O)N[C@@H](Cc1ccc(O)cc1)C(=O)N[C@H]1CSSC[C@@H](C(=O)N[C@@H](C)C(=O)N[C@H](C(=O)N[C@@H](CCCN=C(N)N)C(=O)O)[C@@H](C)O)NC(=O)[C@H](CCCN=C(N)N)NC(=O)CNC(=O)[C@H]([C@@H](C)O)NC(=O)[C@H](CCCN=C(N)N)NC1=O)[C@@H](C)O` [ATCYCRTGRCATR]: the results for the MIC in [34] and in [10] were ≥ 99.9 µM and > 99.9 µM, respectively.

The values above are taken from DBAASP.
